# Experimental data published in patent publication US20240197666A1, “DITERPENOID COMPOUNDS THAT ACT ON PROTEIN KINASE C (PKC)” (K-Gen Therapeutics, Inc., priority 2021, published 2024).
# Assays:
# [1] = Pharmacokinetic study, intravenous bolus injection in rats; assay type: in vivo, rat; details: for AUClast / C0 / CL / MRTInf / Vss / Vz / t1/2: rat plasma, bolus injection
# Experimental: Plasma samples were taken at 1 minute, 5 minutes, 15 minutes, 30 minutes, 1 hour, 2 hours, 4 hours, 7 hours, and 24 hours. The drug concentrations at each time point were determined by LC-MS. The results of drug concentrations and pharmacokinetic parameters are presented in the Table 6 and Table 7, respectively, below.
# [2] = target: T1, C1b domain of human PKCθ (Homo sapiens, UniProt Q04759); assay: biochemical; assay type: binding; details: 3H-PDBu competition
# T1 construct: Genes encoding C1b domains of human PKCα, δ, ε, θ, and PKD1 (PKCμ) were synthesized; made in house; host or cells: E. coli BL21(DE3)
# T1 sequence (Q04759 231-281 limits assumed): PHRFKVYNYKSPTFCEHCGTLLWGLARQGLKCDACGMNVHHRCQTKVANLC
# How it was run: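 Ki derived by Cheng-Prusoff from IC50, with each protein batch's measured ^3H-PDBu Kd. Displacement of ^3H-PDBu from E. coli-produced GST-fused C1b domains or full-length human PKC was run 10 min at 37°C plus 20 min on ice, with filter capture and scintillation counting.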
# [3] = tested on: CT26 tumors; assay: CT26 syngeneic model, IT injection, efficacy and re-challenge; assay type: in vivo, mouse
# Experimental: Each 6-8 weeks old female Balb/c mouse was implanted subcutaneously with 3×10^5 CT26 mouse colon cancer cells. 20 animals were randomized when the average tumor volume reached 60 mm3. Tumor size was measured as described in Example 76. Animal body weight was monitored regularly as an indirect measure of toxicity. All mice tolerated drug treatments very well with less than 10% body weight loss. […] Scabs formed a few days later and the skin recovered with minimal scaring within 3-4 weeks.
# For the efficacy portion of the study, the major endpoints were tumor growth inhibition and the animal survival.
# To test if anti-tumor immunity was developed in the cured mice, the re-challenge portion of the study was conducted. The major endpoint was the tumor initiation (measurable tumor >50 mm^3) of the re-implanted tumor cells.
# CT26 cells (3×10^5) were re-implanted into the right lower flank of the cured animals and 10 age-matched naïve control animals from the same batch to challenge animal immune system. An unrelated 4T1 breast cancer cell line (1×10^5) was implanted in the left upper flank of these animals at the same time. Tumor initiation and tumor growth were monitored. Data points represent group means of the tumor volumes and error bars represent standard error of the mean (SEM).
# [4] = challenge of 6 cured mice with 4T1 cells
# [5] = re-challenge of 6 cured mice with CT26 cells, 32 days
compound,measurement,setting,value
CC1=C[C@H]2[C@@]3(O)[C@H](C)C[C@]4(OC(=O)[C@@H](N)CC5CCCCC5)[C@H]([C@@H]3C=C(CO)C[C@]2(O)C1=O)C4(C)C,"Concentration in Rat Plasma after Bolus Injection, Mean","[1]; Dose 0.1 mg/kg iv, 0.0167 hour post dose",216.0 ng/mL
same,"Concentration in Rat Plasma after Bolus Injection, Mean","[1]; Dose 0.1 mg/kg iv, 0.0833 hour post dose",49.2 ng/mL
same,"Concentration in Rat Plasma after Bolus Injection, Mean","[1]; Dose 0.1 mg/kg iv, 0.25 hour post dose",28.7 ng/mL
same,"Concentration in Rat Plasma after Bolus Injection, Mean","[1]; Dose 0.1 mg/kg iv, 0.5 hour post dose",19.4 ng/mL
same,"Concentration in Rat Plasma after Bolus Injection, Mean","[1]; Dose 0.1 mg/kg iv, 1 hour post dose",14.6 ng/mL
same,"Concentration in Rat Plasma after Bolus Injection, Mean","[1]; Dose 0.1 mg/kg iv, 2 hour post dose",5.0 ng/mL
same,"Concentration in Rat Plasma after Bolus Injection, Mean","[1]; Dose 0.1 mg/kg iv, 4 hour post dose",1.0 ng/mL
same,"Concentration in Rat Plasma after Bolus Injection, Mean","[1]; Dose 0.1 mg/kg iv, 7 hour post dose",<1 ng/mL
same,"Concentration in Rat Plasma after Bolus Injection, Mean","[1]; Dose 0.1 mg/kg iv, 24 hour post dose",<1 ng/mL
same,"Concentration in Rat Plasma after Bolus Injection, Mean","[1]; Dose 0.2 mg/kg iv, 0.0167 hour post dose",334.0 ng/mL
same,"Concentration in Rat Plasma after Bolus Injection, Mean","[1]; Dose 0.2 mg/kg iv, 0.0833 hour post dose",102.0 ng/mL
same,"Concentration in Rat Plasma after Bolus Injection, Mean","[1]; Dose 0.2 mg/kg iv, 0.25 hour post dose",65.0 ng/mL
same,"Concentration in Rat Plasma after Bolus Injection, Mean","[1]; Dose 0.2 mg/kg iv, 0.5 hour post dose",43.6 ng/mL
same,"Concentration in Rat Plasma after Bolus Injection, Mean","[1]; Dose 0.2 mg/kg iv, 1 hour post dose",37.6 ng/mL
same,"Concentration in Rat Plasma after Bolus Injection, Mean","[1]; Dose 0.2 mg/kg iv, 2 hour post dose",29.1 ng/mL
same,"Concentration in Rat Plasma after Bolus Injection, Mean","[1]; Dose 0.2 mg/kg iv, 4 hour post dose",6.0 ng/mL
same,"Concentration in Rat Plasma after Bolus Injection, Mean","[1]; Dose 0.2 mg/kg iv, 7 hour post dose",<1 ng/mL
same,"Concentration in Rat Plasma after Bolus Injection, Mean","[1]; Dose 0.2 mg/kg iv, 24 hour post dose",<1 ng/mL
same,AUClast,[1]; 0.1 mg/kg,48.3 ng·h/mL
same,C0,[1]; 0.1 mg/kg,314 ng/mL
same,CL,[1]; 0.1 mg/kg,32.9 mL/min/kg
same,MRTInf,[1]; 0.1 mg/kg,0.873 h
same,Vss,[1]; 0.1 mg/kg,1.73 L/kg
same,Vz,[1]; 0.1 mg/kg,2.44 L/kg
same,t1/2,[1]; 0.1 mg/kg,0.857 h
same,AUClast,[1]; 0.2 mg/kg,119 ng·h/mL
same,C0,[1]; 0.2 mg/kg,450 ng/mL
same,CL,[1]; 0.2 mg/kg,21.5 mL/min/kg
same,MRTInf,[1]; 0.2 mg/kg,2.93 h
same,Vss,[1]; 0.2 mg/kg,2.77 L/kg
same,Vz,[1]; 0.2 mg/kg,3.25 L/kg
same,t1/2,[1]; 0.2 mg/kg,2.29 h
CC1=C[C@H]2[C@@]3(O)[C@H](C)C[C@]4(OC(=O)[C@H](N)CCCCCCc5ccccc5)[C@H]([C@@H]3C=C(CO)C[C@]2(O)C1=O)C4(C)C,Ki,[2],10 to 30 nM
same,body weight loss,"[3]; 20 mg/ml, 20 μl (400 μg) IT, Balb/c mice",less than 10%
same,mice alive at day 50 with tumors completely eradicated,[3]; N 10,6
same,median survival,[3]; analysis to day 50,not reached
same,Tumor initiation (mice),[3]; [4],6
same,Tumor-free (mice),[3]; [4],0
same,mice with tumors eliminated,"[3]; day 3 after the first IT dose, N 10",8
same,mean tumor volume,"[3]; day 12, 20 mg/ml, 20 μl IT",35 mm^3
same,mice with tumor relapse,"[3]; from day 10, N 10",4
same,Tumor initiation (mice),[3]; [5],0
same,Tumor-free (mice),[3]; [5],6
